The numbers were not newly measured in patent US8771972B2 (Saladax Biomedical Inc., priority 2011, dated 2014), which cites them from elsewhere.

For the data set the following is noted: background statement.

Regarding `C[N+]1([O-])CCN(C2=Nc3cc(Cl)ccc3Nc3ccccc32)CC1` [N-Oxide derivative, Clozapine-N-oxide], the activity of metabolite result was “inactive”. Take `Clc1ccc2c(c1)N=C(N1CCNCC1)c1ccccc1N2` [N-desmethyl metabolite, N-desmethylclozapine]: the activity of metabolite result is “limited activity”.
